Experimental data reported in US20260317272A1, “USE OF STROBILURIN TYPE COMPOUNDS FOR COMBATING PHYTOPATHOGENIC FUNGI CONTAINING AN AMINO ACID SUBSTITION F129L IN THE MITOCHONDRIAL CYTOCHROME B PROTEIN CONFERRING RESISTANCE TO QO INHIBITORS XVI” (priority 2023, published 2026).

Legend:
[1] = system: Sclerotinia sclerotiorum; assay: Use Example 13: preventative fungicidal control of white mold on soy beans (SCLESC P1 mycelium); assay type: in vivo; conditions: 63 ppm, untreated 85%
Protocol: (§1) The compound was dissolved in a mixture of acetone and/or dimethylsulfoxide and the wetting agent/emulsifier Wettol, which is based on ethoxylated alkylphenoles, in a ratio (volume) solvent-emulsifier of 99 to 1 to give a total volume of 5 ml. Subsequently, water was added to total volume of 100 ml. This stock solution was then diluted with the described solvent-emulsifier-water mixture to the final concentration given in the tables below.
Use Example 13. Preventative Fungicidal Control of White Mold on Soy Beans Caused by Sclerotinia sclerotiorum (SCLESC P1 Mycelium)
Young seedlings of soy beans were grown in pots. These plants were sprayed to run-off with previously described spray solution, containing the concentration of active ingredient or mixture mentioned in the table below. The next day the treated plants were inoculated with a biomalt suspension, containing the mycelium of Sclerotinia sclerotiorum. Then the trial plants were cultivated for 6 days in a greenhouse chamber at 23° C. and a relative humidity between 80 and 85%. The extent of fungal attack on the leaves was visually assessed as % diseased leaf area.

[2] = system: Puccinia sorghi; assay: Use Example 8: protective control of corn rust on corn (PUCCSO P1); assay type: in vivo; conditions: 16 ppm, untreated 80%
Protocol: as §1
Use Example 8. Protective Control of Corn Rust on Corn Caused by Puccinia sorghi (PUCCSO P1)
The primary leaves of potted corn seedling were sprayed to run-off with previously described spray solution, containing the concentration of active ingredient or their mixture as described below. One day later the plants were dusted with before harvested spores of Puccinia sorghi. To ensure the success of the artificial inoculation, the plants were transferred to a humid chamber without light and a relative humidity of […] and 20 to 24° C. and were there incubated for about fourteen days. The extent of fungal attack on the primary leaves was visually assessed as % diseased leaf area.

Row | Structure (SMILES) | Diseased leaf area (%) [1] [%] | Diseased leaf area (%) [2] [%]
1 | CNC(=O)/C(=N/OC)c1cccc(C)c1CO/N=C(\COC)c1c(F)cc(OC)cc1F [Compound 7, (2E)-2-[2-[[(Z)-[1-(2,6-difluoro-4-methoxy-phenyl)-2-methoxy-ethylidene]amino]oxymethyl]-3-methyl-phenyl]-2-methoxyimino-N-methyl-acetamide] | 4 | 12
2 | CNC(=O)/C(=N/OC)c1cccc(C)c1CO/N=C(\COC)c1ccc(F)c(F)c1 [Compound 5, (2E)-2-[2-[[(Z)-[1-(3,4-difluorophenyl)-2-methoxy-ethylidene]amino]oxymethyl]-3-methylphenyl]-2-methoxyimino-N-methyl-acetamide] |  | 0
